Earlier results, collected in patent publication US4801604A (priority 1987, dated 1989).

Details: phenytoin and structurally related drugs

In the case of O=C1NC(=O)C(c2ccccc2)(c2ccccc2)N1 [phenytoin], the “Side effects (in words)” value is listed as “hyperplasia of the gums, cerebellar degeneration, gastric distress and serious skin rashes”.
